Active and inactive are the calls of the source. No rule for the calls is given here.

From PubChem BioAssay AID434987 (Southern Research Specialized Biocontainment Screening …, 2010) come the findings set out here.

For the test, the system named is M. tuberculosis H37Rv growth inhibition with meropenem. The experiment in a line: dose response, H37Rv, with and without meropenem (AID 434987).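 Also: growth over 7 days at 37 °C before Alamar Blue read on day 9.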
The mark [1] stands for this setting: M. tuberculosis H37Rv growth inhibition, measured here: IC50 without meropenem.
Where [2] appears, read: M. tuberculosis H37Rv growth inhibition, measured here: IC90 without meropenem.
The mark [3] stands for this setting: measured here: IC90 with meropenem.

As usually defined, the IC50 is the concentration needed to halve the response being measured. As usually defined, the IC90 is the concentration needed for an effect of 90%. A lower IC90 goes with an effect from little substance. For the compound `CCC1CCCCN1C(=O)CSc1nnc(-c2ccc(Cl)s2)o1` (stereo unspecified), the IC50 was > 100 µM (inactive). This compound also registered an IC50 under setting [1] of more than 100 µM. Moreover, under setting [2], the IC90 is more than 100 µM. Under setting [3], this compound came in with an IC90 of more than 100 µM.
Regarding `Cc1[nH]n(-c2ccccc2)c(=O)c1/C=N/NC(=O)c1cccc([N+](=O)[O-])c1`, the IC50 was 5.43 µM. Further, the IC50 under setting [1] was found to be 34.2 µM. This compound yielded a concentration for an effect of 90% (IC90) under setting [2] of 55.1 µM. The compound also showed an IC90 under setting [3] of 70.7 µM.
As for `COc1ccccc1N1CCN(S(=O)(=O)c2ccc3nc(-c4ccccc4)[nH]c3c2)CC1`, the IC50 is > 100 µM (inactive). This compound also gave a half-inhibitory concentration (IC50) under setting [1] of more than 100 µM. Besides, the IC90 under setting [2] was more than 100 µM. Under setting [3], the IC90 was more than 100 µM.
Take `CCc1nnc(NC(=O)c2ccc3nc(CC)c(CC)nc3c2)s1`: the IC50 was 46.6 µM (inactive). Under setting [1], this compound displayed an IC50 of more than 100 µM. Besides, the 90% effect concentration (IC90) under setting [2] was more than 100 µM. The compound further yielded an IC90 under setting [3] of more than 100 µM.
Consider `Cc1ccc(-n2nnnc2Sc2nc([N+](=O)[O-])nn2C)c(C)c1`, for which the IC50 is 16.5 µM. Under setting [1], the IC50 worked out at 50.4 µM. Moreover, under setting [2], the IC90 was more than 100 µM. This compound gave a 90% effect concentration (IC90) under setting [3] of more than 100 µM.
`COc1ccc(NCC(=O)N/N=C/C(C)c2ccccc2)cc1` (stereo unspecified): the IC50 was > 100 µM (inactive). Under setting [1], the IC50 was more than 100 µM. In addition, under setting [2], the IC90 was more than 100 µM. The compound also registered an IC90 under setting [3] of more than 100 µM.
Take `O=c1c(N=Nc2ccc(O)cc2)c(-c2ccccc2)[nH]n1-c1ccc([N+](=O)[O-])cc1`: the IC50 was > 100 µM (inactive). Moreover, the half-maximal inhibitory concentration (IC50) under setting [1] was more than 100 µM. For the same compound, under setting [2], the IC90 is more than 100 µM. The same compound returned an IC90 under setting [3] of more than 100 µM.
Consider `COc1ccc2ccccc2c1/C=N/NC(=O)c1cccc(C)c1`, for which the IC50 was 64.9 µM (inactive). The same compound showed an IC50 under setting [1] of more than 100 µM. Under setting [2], this compound gave an IC90 of more than 100 µM. The IC90 under setting [3] was more than 100 µM.
On to `CCOC(=O)c1c(NC(=O)C(=O)N/N=C/c2ccccc2OC)sc2c1CCCCC2`, for which the IC50 is > 100 µM (inactive). This compound also returned an IC50 under setting [1] of more than 100 µM. For the same compound, the IC90 under setting [2] is more than 100 µM. The compound also showed an IC90 under setting [3] of more than 100 µM.
With `C=CCSc1nnc2c(n1)OC(c1c(C)[nH]n(-c3ccccc3)c1=O)Nc1ccccc1-2` (stereo unspecified), the IC50 is 28 µM. In addition, the IC50 under setting [1] was more than 100 µM. This compound also returned a concentration for an effect of 90% (IC90) under setting [2] of more than 100 µM. The IC90 under setting [3] is more than 100 µM.
For the compound `CCCCC(=O)Nc1ccc(NC(=S)NC(=O)CCCCl)cc1OC`, the IC50 was > 50 µM (inactive). The half-inhibitory concentration (IC50) under setting [1] was 94.9 µM. Under setting [2], this compound registered an IC90 of more than 100 µM. Under setting [3], this compound displayed an IC90 of more than 50 µM.
The like results for `COc1cc(NC(=O)c2ccccc2F)c(OC)cc1NC(=O)CN1CCOCC1` were, in that order, 29.2 µM, more than 100 µM, more than 100 µM and more than 50 µM.
The like results for `CCN(CC)S(=O)(=O)c1ccc(N/N=C(\C)c2ccc(OC)cc2O)nc1` were, in that order, 1.07 µM, 5.71 µM, 11.3 µM and 10.4 µM.
The like results for `COc1cccc(/C=N/NC(=O)CSCC(=O)Nc2ccccc2)c1O` were, in that order, 5.41 µM, more than 100 µM, more than 100 µM and more than 100 µM.
For the compound `CCCCN(CC)S(=O)(=O)c1ccc(C(=O)Nc2nnc(CSC)o2)cc1`, the IC50 is 17.2 µM (inactive). Under setting [1], this compound registered a concentration for half-maximal inhibition (IC50) of 25.2 µM. Also, the IC90 under setting [2] is more than 100 µM. Further, the IC90 under setting [3] is 31.7 µM.
The like results for `O=C(NC1c2ccccc2-c2ccccc21)c1ccco1` were, in that order, > 100 µM (inactive), more than 100 µM, more than 100 µM and more than 100 µM.
For `C=CCN(C(=O)CN1CCOCC1)c1nc(C)c(-c2ccccc2)s1` the same measures were > 100 µM (inactive), more than 100 µM, more than 100 µM and more than 100 µM.
For `CCCOc1ccc(C(=O)N/N=C/c2ccc(-c3ccc(S(=O)(=O)Nc4ncccn4)cc3)o2)cc1` the same measures were 22.4 µM (inactive), 39.8 µM, more than 100 µM and 26.1 µM.
As to `Cc1ccc(/C=N/NC(=O)c2cccs2)s1`, the IC50 is > 100 µM (inactive). The same compound displayed an IC50 under setting [1] of more than 100 µM. The same compound displayed an IC90 under setting [2] of more than 100 µM. Under setting [3], this compound registered an IC90 of more than 100 µM.
For the compound `CC(C)C(=O)Nc1ccc2c3c(cccc13)CC2`, the IC50 was 19.4 µM. For the same compound, the IC50 under setting [1] was more than 100 µM. The concentration for an effect of 90% (IC90) under setting [2] was more than 100 µM. In addition, the IC90 under setting [3] was more than 100 µM.
For the compound `COc1ccc2oc(C(=O)Nc3nc4ccccc4[nH]3)c(C)c2c1`, the IC50 is 1.7 µM. The compound further gave an IC50 under setting [1] of 36.9 µM. The compound further registered an IC90 under setting [2] of more than 100 µM. The compound further had a 90% effect concentration (IC90) under setting [3] of more than 100 µM.
With `C/C(CC(=O)Nc1c(C)cc(C)cc1C)=N\NC(=O)c1cnccn1`, the IC50 was 5.21 µM. Under setting [1], this compound returned an IC50 of 28.7 µM. Also, under setting [2], the 90% effect concentration (IC90) is 58.5 µM. Under setting [3], the IC90 was 17.4 µM.
As to `CC(/C=C(\NC(=O)c1ccccc1)C(=O)N=Nc1c(O)[nH]c2ccc(C)cc12)=C\c1ccccc1`, the IC50 is > 100 µM (inactive). Also, under setting [1], the IC50 is more than 100 µM. Further, the IC90 under setting [2] is more than 100 µM. Further, the IC90 under setting [3] is more than 100 µM.
Regarding `Cc1nn(-c2ccccc2)c(Cl)c1CN(C(=O)CCl)c1cccc2ccccc12`, the IC50 is 18.7 µM (inactive). The compound also registered an IC50 under setting [1] of 33 µM. The compound also came in with a concentration for an effect of 90% (IC90) under setting [2] of 53.4 µM. This compound came in with an IC90 under setting [3] of 48.2 µM.
For `CCOc1ccc(-c2nnc(-c3ccc(OC)cc3)o2)cc1` the same measures were 4.65 µM, 35.6 µM, more than 100 µM and more than 100 µM.
As to `CC(=O)c1ccc(-n2c(C)ccc2-c2ccccc2)cc1`, the IC50 is 20.2 µM. This compound displayed an IC50 under setting [1] of 61.3 µM. The IC90 under setting [2] was found to be 88.3 µM. The IC90 under setting [3] is more than 100 µM.
For `CNC(=S)N/N=C(\C)c1ccc(Cl)c(Cl)c1` the same measures were > 100 µM (inactive), more than 100 µM, more than 100 µM and more than 100 µM.
Turning to `Nc1nc2ccccc2n1C(=O)c1cccs1`, the IC50 was 5.84 µM. In addition, under setting [1], the 50% inhibitory concentration (IC50) came out at 42.8 µM. The IC90 under setting [2] is more than 100 µM. The IC90 under setting [3] was more than 100 µM.
In the case of `Cc1cc(C(=O)CSc2nnnn2-c2ccccc2)c(C)n1-c1ccc2c(c1)OCO2`, the IC50 was 44.9 µM (inactive). Also, under setting [1], the IC50 stood at 49.7 µM. This compound also registered an IC90 under setting [2] of more than 100 µM. Under setting [3], this compound returned an IC90 of 60.9 µM.
The like results for `N/C(=N\c1nc2ccccc2o1)NC(=O)c1ccccc1NC(=O)c1ccccc1` were, in that order, > 100 µM (inactive), more than 100 µM, more than 100 µM and more than 100 µM.
The like results for `Cc1cc2ccccc2n1CCNC(=O)COc1ccccc1` were, in that order, 30.1 µM (inactive), 44.7 µM, 60.3 µM and 42.8 µM.
For `CCOC(=O)c1ccc(-c2ccc(C=O)o2)cc1`, the IC50 was 29.1 µM (inactive). In addition, the 50% inhibitory concentration (IC50) under setting [1] was 44.6 µM. The same compound returned an IC90 under setting [2] of more than 100 µM. Under setting [3], this compound came in with a concentration for an effect of 90% (IC90) of more than 100 µM.
Consider `Cc1ccc(-c2[nH][nH]c(=O)c(=O)c2N=Nc2ccccc2)cc1`, for which the IC50 was 4.12 µM. The same compound returned a 50% inhibitory concentration (IC50) under setting [1] of 51.7 µM. In addition, under setting [2], the IC90 is more than 100 µM. This compound also came in with an IC90 under setting [3] of 86.2 µM.
For `Cc1nn(Cc2ccc(Cl)cc2)c(C)c1NC(=O)CSc1nc2c(c(C(F)(F)F)n1)CCc1ccccc1-2` the same measures were > 100 µM (inactive), more than 100 µM, more than 100 µM and more than 100 µM.
As to `Cc1ccccc1NC(=O)c1ccc(CN(c2ccccc2)S(=O)(=O)c2ccccc2)cc1`, the IC50 is > 100 µM (inactive). Further, under setting [1], the IC50 was more than 100 µM. The IC90 under setting [2] was more than 100 µM. Under setting [3], this compound showed a 90% effect concentration (IC90) of more than 100 µM.
For the compound `CCOc1cc(N2CCOCC2)c(OCC)cc1NC(=O)COc1cccc(CC)c1`, the IC50 was > 100 µM (inactive). Moreover, under setting [1], the IC50 was more than 100 µM. Under setting [2], this compound returned an IC90 of more than 100 µM. Besides, the IC90 under setting [3] was more than 100 µM.
With `C=CCNC1=C(Cl)C(=O)N(c2cccc(Cl)c2Cl)C1=O`, the IC50 is 13.9 µM. Moreover, the IC50 under setting [1] came to 46.5 µM. Further, the IC90 under setting [2] is more than 100 µM. The same compound returned an IC90 under setting [3] of 30.2 µM.
The like results for `O=C(O)Cc1csc(Nc2cccc(Cl)c2)n1` were, in that order, > 100 µM (inactive), more than 100 µM, more than 100 µM and more than 100 µM.
For `Cc1ccc(C(=O)Nc2nc3ccccc3s2)s1` the same measures were 43.6 µM (inactive), more than 100 µM, more than 100 µM and more than 100 µM.
For `CC(C)C(=O)Nc1ccc(NC(=S)NC(=O)c2ccc([N+](=O)[O-])cc2)cc1` the same measures were > 100 µM (inactive), more than 100 µM, more than 100 µM and more than 100 µM.
On to `CCCOc1ccccc1NC(=O)/C=C/C(N)=O`, for which the IC50 is 13.4 µM (inactive). Under setting [1], this compound registered an IC50 of 26.8 µM. Moreover, under setting [2], the concentration for an effect of 90% (IC90) turned out to be 33.8 µM. Also, the concentration for an effect of 90% (IC90) under setting [3] worked out at 27.7 µM.
For `O=C(c1csc2c1CCCC2)n1cccn1` the same measures were 49.4 µM (inactive), 97.3 µM, more than 100 µM and more than 100 µM.
For `CCOC(=O)c1sc(NC(=O)CN2CCN(c3ccc(OC)cc3)CC2)nc1C` the same measures were 68.2 µM (inactive), 98.9 µM, more than 100 µM and more than 100 µM.
Regarding `CCN(Cc1ccncc1)C(=O)C(CO)c1ccccc1` (stereo unspecified), the IC50 was > 100 µM (inactive). Under setting [1], this compound gave an IC50 of more than 100 µM. For the same compound, the IC90 under setting [2] was more than 100 µM. Also, the IC90 under setting [3] is more than 100 µM.
